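Protocol summary: plate cells (96-well), add compound at 5 concentrations, incubate 48 h, interpolate endpoints linearly. GI50 is the concentration that inhibits growth by half.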 Active and inactive are the calls of the source. Cut-off read from the data, not from the text of the source: active = GI50 up to about 1.1 µM and inactive = higher.
Columns and labels:
Experiment in all cases: NCI-60 cell line screen, 48 h
[1] = system: NCI/ADR-RES
[2] = system: OVCAR-8
[3] = system: SK-MEL-5
[4] = system: OVCAR-5
[5] = system: CCRF-CEM
[6] = system: Malme-3M
[7] = system: RXF 393
[8] = system: KM12
[9] = system: SNB-19
[10] = system: NCI-H226
[11] = system: MCF7
[12] = system: HOP-92
[13] = system: UACC-257
[14] = system: HCT-116
[15] = system: MDA-N
[16] = system: SN12C
[17] = system: K562
[18] = system: RPMI-8226
[19] = system: SR
[20] = system: IGROV-1

| SMILES | GI50 [1] | GI50 [2] | GI50 [3] | GI50 [4] | GI50 [5] | GI50 [6] | GI50 [7] | GI50 [8] | GI50 [9] | GI50 [10] | GI50 [11] | GI50 [12] | GI50 [13] | GI50 [14] | GI50 [15] | GI50 [16] | GI50 [17] | GI50 [18] | GI50 [19] | GI50 [20] |
| --- | --- | --- | --- | --- | --- | --- | --- | --- | --- | --- | --- | --- | --- | --- | --- | --- | --- | --- | --- | --- |
| O=C(c1cc(Cl)cc(Cl)c1)N(C(=O)N1CCN(c2ccccc2)CC1)c1ccccc1 | 25.6 µM (inactive) | 53.5 µM (inactive) | 21.6 µM (inactive) | 22.3 µM (inactive) | 22.5 µM (inactive) | 47 µM (inactive) | 37 µM (inactive) | 23.5 µM (inactive) | 53.3 µM (inactive) | 22.8 µM (inactive) | 29.9 µM (inactive) | 34.5 µM (inactive) | 28.9 µM (inactive) | 24.3 µM (inactive) | 12.7 µM (inactive) | 55.6 µM (inactive) | 10.5 µM (inactive) | – | – | – |
| C[C@H](c1ccccc1)N1C(=O)[C@@H](O)[C@H]1[C@H](CO)OCc1ccccc1 | > 100 µM (inactive) | > 100 µM (inactive) | > 100 µM (inactive) | > 100 µM (inactive) | > 100 µM (inactive) | > 100 µM (inactive) | – | > 100 µM (inactive) | > 100 µM (inactive) | > 100 µM (inactive) | > 100 µM (inactive) | 96.4 µM (inactive) | > 100 µM (inactive) | > 100 µM (inactive) | > 100 µM (inactive) | > 100 µM (inactive) | > 100 µM (inactive) | > 100 µM (inactive) | > 100 µM (inactive) | > 100 µM (inactive) |
| CC(C)OP(=O)(OC(C)C)C(C(C)C)N(C)/C(F)=N/C(F)(F)F (configuration not stated) | > 100 µM (inactive) | > 100 µM (inactive) | > 100 µM (inactive) | > 100 µM (inactive) | > 100 µM (inactive) | > 100 µM (inactive) | > 100 µM (inactive) | > 100 µM (inactive) | > 100 µM (inactive) | > 100 µM (inactive) | > 100 µM (inactive) | > 100 µM (inactive) | > 100 µM (inactive) | > 100 µM (inactive) | > 100 µM (inactive) | > 100 µM (inactive) | 60.5 µM (inactive) | – | – | > 100 µM (inactive) |
| C/C(=N/NC(=S)N1CCN(C(=S)N/N=C(/C)c2ccccn2)CC1)c1ccccn1 | 4.16 µM (inactive) | 4.13 µM (inactive) | 6.97 µM (inactive) | > 66.8 µM (inactive) | 0.682 µM (active) | 4.6 µM (inactive) | 3.52 µM (inactive) | 16.5 µM (inactive) | 11.7 µM (inactive) | 6.89 µM (inactive) | 5.24 µM (inactive) | > 46.2 µM (inactive) | 16.3 µM (inactive) | 6.89 µM (inactive) | > 77.8 µM (inactive) | 8.65 µM (inactive) | 16.3 µM (inactive) | 12.1 µM (inactive) | – | 17.7 µM (inactive) |
| COC(=O)C1=C(C(=O)OC)C(C(=O)c2ccc(Br)cc2)N2N=C(c3ccc(Cl)cc3)C=CC12 (configuration not stated) | > 100 µM (inactive) | > 100 µM (inactive) | > 100 µM (inactive) | > 100 µM (inactive) | > 100 µM (inactive) | > 100 µM (inactive) | – | 14.5 µM (inactive) | > 100 µM (inactive) | > 100 µM (inactive) | 82.8 µM (inactive) | 72.1 µM (inactive) | > 100 µM (inactive) | > 100 µM (inactive) | > 100 µM (inactive) | > 100 µM (inactive) | > 100 µM (inactive) | > 100 µM (inactive) | 40.6 µM (inactive) | > 100 µM (inactive) |
| CC(=O)NC(CC(C)C)C(=O)NC(CC(C)C)C(=O)NC(C=O)CCCNC(=N)N (configuration not stated) | > 100 µM (inactive) | > 100 µM (inactive) | > 100 µM (inactive) | > 100 µM (inactive) | > 100 µM (inactive) | 72.6 µM (inactive) | – | > 100 µM (inactive) | > 100 µM (inactive) | 42.3 µM (inactive) | > 100 µM (inactive) | > 100 µM (inactive) | > 100 µM (inactive) | > 100 µM (inactive) | > 100 µM (inactive) | > 100 µM (inactive) | > 100 µM (inactive) | > 100 µM (inactive) | > 100 µM (inactive) | > 100 µM (inactive) |
| COC(=O)c1ccccc1C1CN=NC12Cc1ccc3c(c1C2=O)CCC3 (configuration not stated) | 19.5 µM (inactive) | 94.4 µM (inactive) | 17.4 µM (inactive) | > 100 µM (inactive) | 19.3 µM (inactive) | 21.8 µM (inactive) | 67.9 µM (inactive) | 42.1 µM (inactive) | 65 µM (inactive) | 55.1 µM (inactive) | 34.9 µM (inactive) | 23.1 µM (inactive) | 44.1 µM (inactive) | 39.3 µM (inactive) | > 100 µM (inactive) | > 100 µM (inactive) | 7.23 µM (inactive) | – | – | > 100 µM (inactive) |
| CC(=O)OC1(C)C(=O)OC/C2=C/CN(C)CCC(OC(=O)C(O)(C(C)Cl)CC1C)C2=O.c1ccccc1 (configuration not stated) | > 100 µM (inactive) | > 100 µM (inactive) | > 100 µM (inactive) | > 100 µM (inactive) | > 100 µM (inactive) | – | – | > 100 µM (inactive) | > 100 µM (inactive) | > 100 µM (inactive) | > 100 µM (inactive) | > 100 µM (inactive) | > 100 µM (inactive) | > 100 µM (inactive) | > 100 µM (inactive) | > 100 µM (inactive) | > 100 µM (inactive) | > 100 µM (inactive) | > 100 µM (inactive) | > 100 µM (inactive) |
| CC(N)(CC(O)(C(F)(F)Cl)C(F)(F)Cl)C(=O)O (configuration not stated) | > 10 µM (inactive) | > 10 µM (inactive) | > 10 µM (inactive) | > 10 µM (inactive) | > 10 µM (inactive) | > 10 µM (inactive) | – | > 10 µM (inactive) | > 10 µM (inactive) | > 10 µM (inactive) | > 10 µM (inactive) | > 10 µM (inactive) | > 10 µM (inactive) | > 10 µM (inactive) | > 10 µM (inactive) | > 10 µM (inactive) | > 10 µM (inactive) | – | > 10 µM (inactive) | > 10 µM (inactive) |
| NNC(=O)c1ccc[n+](CCc2ccccc2)c1 | > 100 µM (inactive) | > 100 µM (inactive) | > 100 µM (inactive) | > 100 µM (inactive) | – | > 100 µM (inactive) | > 100 µM (inactive) | > 100 µM (inactive) | > 100 µM (inactive) | > 100 µM (inactive) | > 100 µM (inactive) | > 100 µM (inactive) | > 100 µM (inactive) | > 100 µM (inactive) | > 100 µM (inactive) | > 100 µM (inactive) | > 100 µM (inactive) | > 100 µM (inactive) | – | > 100 µM (inactive) |
| N=C(N)/N=C(\N)Nc1cnccn1 | > 100 µM (inactive) | > 100 µM (inactive) | > 100 µM (inactive) | – | > 100 µM (inactive) | > 100 µM (inactive) | > 100 µM (inactive) | > 100 µM (inactive) | > 100 µM (inactive) | > 100 µM (inactive) | > 100 µM (inactive) | > 100 µM (inactive) | > 100 µM (inactive) | > 100 µM (inactive) | > 100 µM (inactive) | > 100 µM (inactive) | > 100 µM (inactive) | – | – | > 100 µM (inactive) |
| O=c1c2cc(S(=O)(=O)O)ccc2nc(COc2ccc(Oc3ccc(Cl)cc3Cl)cc2)n1-c1ccc(Cl)cc1Oc1c(Cl)cccc1Cl | 23.9 µM (inactive) | 23.3 µM (inactive) | 17 µM (inactive) | 23.6 µM (inactive) | 30.9 µM (inactive) | 36.5 µM (inactive) | – | 35 µM (inactive) | 40.9 µM (inactive) | 20.6 µM (inactive) | 21.2 µM (inactive) | 15.7 µM (inactive) | 30.5 µM (inactive) | 24.8 µM (inactive) | 30.1 µM (inactive) | 30.1 µM (inactive) | 43.2 µM (inactive) | 21.2 µM (inactive) | 34 µM (inactive) | 33 µM (inactive) |
| Brc1ccc(-c2cc(-c3ccc4c(c3)OCO4)c(-c3cccs3)n2Cc2ccccc2)cc1 | > 100 µM (inactive) | > 100 µM (inactive) | > 100 µM (inactive) | – | > 100 µM (inactive) | – | > 100 µM (inactive) | > 100 µM (inactive) | > 100 µM (inactive) | – | > 100 µM (inactive) | – | > 100 µM (inactive) | > 100 µM (inactive) | > 100 µM (inactive) | > 100 µM (inactive) | > 100 µM (inactive) | > 100 µM (inactive) | > 100 µM (inactive) | > 100 µM (inactive) |
| O=C(Sc1c(-c2ccccc2)c(=O)n(-c2ccccc2)c(=S)n1-c1ccccc1)c1ccccc1 | 75 µM (inactive) | 99.3 µM (inactive) | 33.9 µM (inactive) | > 100 µM (inactive) | 15.8 µM (inactive) | > 100 µM (inactive) | – | > 100 µM (inactive) | > 100 µM (inactive) | > 100 µM (inactive) | 51.6 µM (inactive) | 32.1 µM (inactive) | > 100 µM (inactive) | 56 µM (inactive) | 84.5 µM (inactive) | > 100 µM (inactive) | 29 µM (inactive) | 41.8 µM (inactive) | 31.3 µM (inactive) | > 100 µM (inactive) |
| COc1ccc2c(c1)CCC/C2=N\NS(=O)(=O)c1c(C)cc(C)cc1C | 21.7 µM (inactive) | 30.9 µM (inactive) | 17.3 µM (inactive) | 39.6 µM (inactive) | 27.1 µM (inactive) | 24.4 µM (inactive) | – | 16 µM (inactive) | 41.6 µM (inactive) | 22.2 µM (inactive) | 37.8 µM (inactive) | 20.3 µM (inactive) | 39.2 µM (inactive) | 18.3 µM (inactive) | 28.6 µM (inactive) | 21.8 µM (inactive) | 18.1 µM (inactive) | – | 20.2 µM (inactive) | 19 µM (inactive) |

From ChEMBL document CHEMBL1201862, “PubChem BioAssay data set” (2004)
